# Assay results taken from US20090182011A1, “Chimeric Nitrate Esters and Use of the Same in a Treatment for Depression” (UNIVERSITY OF ILLINOIS CHICAGO, priority 2008, published 2009).
# Columns and labels:
# male Sprague Dawley rats = test: Modified forced swimming test; format: in vivo, rat; conditions: 26.5 mg/kg i.p. 23.5, 5 and 1 hour before the test
# Description: Modified forced swimming test This test was performed using male Sprague Dawley rats weighing 200-250 g. Rats were trained to swim in the water tank for 15 minutes 24 hour before the test. NO-Fluoxetine was administered by i.p. injections 23.5, 5, and 1 hour before the test at a dose of 26.5 mg/kg, which is equimolar to 20 mg/kg fluoxetine. NO-fluoxetine was freshly prepared in an emulsion formed of 5% Tween 80. The test was performed by putting the rats in a water tank consisting of an acrylic cylinder (22 cm diameter, 30 cm water depth, 25° C. water temperature) for 5 minutes. The 5 minute test was divided into 60 blocks of 5 seconds each. The major behavior in each 5 sec block was assigned for the whole block, including climbing, swimming, and immobile. The blocks representing different behaviors were counted.
# In vivo NO-fluoxetine (26.5 mg/kg equimolar to 20 mg/kg fluoxetine) given by i.p. injections 23.5, 5, and 1 hour before the test was active in the modified forced swimming test, showing an increase in the swimming behaviour and a decrease in the immobility behaviour. Sub-acute injection of NO-fluoxetine provides sufficient time for the bioactivation of NO-fluoxetine and the subsequent release of fluoxetine.
# Values presented as mean±SEM, n=6 per group. The data were statistically evaluated by ANOVA, followed by Turkey post-hoc test.
# [1] = NO-fluoxetine bioactivation in rat plasma; format: in vitro ADME; conditions: 0.25 mM substrate, 30 min, 37° C.
# Description: In plasma A solution containing substrate (0.25 mM) and rat plasma (0.1 mL) was incubated for 30 min at 37° C. The reaction was quenched by addition of acetonitrile and centrifugation for 10 min. The solution was filtered and injected to HPLC.
# male C57BL/6 mice = test: Step-through passive avoidance (STPA) task, scopolamine induced memory impairment; conditions: for effect on 48 h retention (scopolamine induced long term memory impairment): 4.5 umole/kg i.p. 20 minutes before training (NO-fluoxetine 2.05 mg/kg, fluoxetine 1.54 mg/kg), scopolamine 1 mg/kg
# Description: Step-through passive avoidance (STPA) task This test was performed on male C57BL/6 mice (from Charles River's Laboratories), 8-10 weeks of age and weighing 22-27 g. The mice were kept under standardized laboratory conditions (temperature 21±1° C., humidity 50-60%) with free access to food and tap water in a room with a natural light-dark cycle.
# Avoidance experiment was divided into 3 phases: habituation, training, and retention. The apparatus used consisted of a box divided into 2 compartments, an illuminated compartment adjacent to a dark compartment, the floor consisted of an electric grid controlled by a switch that can deliver an electric shock only to the dark compartment. A doorway was located at floor level in the center of the connecting wall; the door was closed once the mouse enters the dark compartment. The habituation phase was performed by individually putting the mice in the light compartment; the door was closed once the mouse enters the dark compartment (without an electric shock), left there for 15 seconds before being returned to its cage. The time (latency) to enter the dark box was recorded for each mouse; only mice scoring less than 30 seconds for three consecutive times were allowed to pass for the training phase. Training phase was performed 2 hours after the habituation phase by individually placing the mice again in the illuminated compartment but an electric shock (0.6 mA for 2 s) was delivered immediately after the mouse entered the dark compartment accompanied by the door closure. Trial was repeated for a maximum of 5 trials or until the mouse remained in the light compartment for 300 seconds in one of the trials. During the training phase, the number of trials and the time (latency) to enter the dark compartment was scored. Mice that entered the dark compartment in the fifth trial in less than 300 seconds were eliminated from the experiment. Forty-eight hours after the training trial, a retention test was conducted in which the same animals were put into the illuminated box and again the latency to enter the dark box was recorded. The retention trial ended when the mouse entered the dark box or 300 s had elapsed, whichever occurred first. Scopolamine (1 mg/kg) dissolved in physiological saline water was administered by i.p. injection 30 minutes before the training phase and drugs dissolved in 25% DMSO were administered by i.p. injection 20 minutes before the training.
# The data were statistically evaluated by one way ANOVA, followed by Tukey post-hoc test.
# [2] = NO-fluoxetine bioactivation in rat liver microsomes; format: in vitro ADME; conditions: 0.25 mM substrate, NADPH, 30 min, 37° C.
# Description: In rat liver microsomes A solution containing substrate (0.25 mM), rat liver microsomes (3 nmol of P450/0.5 mL), and NADPH (2 mM) in 50 mM phosphate buffer (pH 7.4, 0.5 mL total volume) was incubated for 30 min at 37° C. The reaction was quenched by addition of acetonitrile and centrifugation for 10 min. The solution was filtered and injected to HPLC.
# [3] = NOx detection (NO analyzer, Griess assay); conditions: incubated with GSH
# Description: NOx detection A degassed solution containing NO-fluoxetine (0.5 mM), and cysteine (5 mM) or GSH (5 mM) in 50 mM phosphate buffer (pH 7.4, 1 mL total volume) was incubated for 30 min at 37° C. After 30 min, nitric oxide was detected using an NO analyzer, and nitrite and nitrate was detected using Griess assay.
# [4] = NO-fluoxetine bioactivation in phosphate buffer; format: physicochemical; conditions: 50 mM phosphate buffer solutions pH 7.0, 7.4 and 8.0
# Description: In Phosphate buffer saline A stock solution of NO-fluoxetine was prepared by dissolving 1 mg of the compound in 100 μL MeOH (21 mM). An aliquot (10 μL) of the stock solution was added to 990 μL of 50 mM phosphate buffer (pH 7.4) at 22° C., and the formation of fluoxetine was monitored by reverse phase HPLC using 4.6 mm×150 mm C18 column at a flow rate of 1.0 mL/min. The mobile phase contained 60% acetonitrile content, which was increased to 90% over 5 min. After the phase was held 90% for 5 min, the acetonitrile was reduced to 60% in 5 min. Formation of fluoxetine in buffers was positively identified by comparing retention time and the LC-MS (electrospary ionization) protonated [M+H]+ molecular ion (m/z 310) of the authentic sample. Fluoxetine formation was monitored every 15 min and percentage of fluoxetine formation was obtained with respect to time. Kinetic experiments were performed in 50 mM phosphate buffer solutions (pH 7.0, pH 7.4, and pH 8.0).
# Formation of fluoxetine in buffer was positively identified by comparison to the retention time and the LC-MS (electrospary ionization) protonated [M+H]+ molecular ion (m/z 310) of an authentic fluoxetine sample.
# Kinetic studies for the degradation of NO-fluoxetine were performed by monitoring the production of fluoxetine every 15 min in different pH buffer solutions (See FIG. 1).
SMILES,activity in the modified forced swimming test (male Sprague Dawley rats),immobility behaviour (male Sprague Dawley rats),swimming behaviour (male Sprague Dawley rats),product of reaction with plasma [1],effect on 48 h retention (scopolamine induced long term memory impairment) (male C57BL/6 mice),product of reaction with rat liver microsomes [2],nitric oxide release [3],conversion in buffer [4],animals that failed to learn the STPA task during the training phase (male C57BL/6 mice; 4.5 umole/kg i.p. 20 minutes before training)
CN(CCC(Oc1ccc(C(F)(F)F)cc1)c1ccccc1)C(=O)SCCO[N+](=O)[O-] (stereo not shown) [NO-fluoxetine],active,decrease,increase,generated fluoxetine as the major product,reversed the scopolamine induced long term memory impairment,generated fluoxetine as the major product,released nitric oxide,converted to fluoxetine,
CNCCC(Oc1ccc(C(F)(F)F)cc1)c1ccccc1 (stereo not shown) [fluoxetine],,,,,did not have an effect,,,,5 of 12 and zero
